# Measurements as given in patent US8697873B2, “Amide substituted imidazopyridines, imidazoquinolines, and imidazonaphthyridines” (3M Innovative Properties Company, priority 2004, dated 2014).
row,melting point [°C],Compound
1,172 to 173,"CCCc1nc2c(N)nc3ccccc3c2n1CCC(=O)N1CCOCC1 [Example 16, 1-(3-Morpholin-4-yl-3-oxopropyl)-2-propyl-1H-imidazo[4,5-c]quinolin-4-amine]"
2,166 to 168,"Nc1nc2ccccc2c2c1ncn2CCCCCC(=O)N1CCOCC1 [Example 11, 1-(6-Morpholin-4-yl-6-oxohexyl)-1H-imidazo[4,5-c]quinolin-4-amine]"
3,162 to 163,"CCCc1nc2c(N)nc3c(c2n1CCCCCC(=O)N1CCOCC1)CCCC3 [Example 30, 1-(6-Morpholin-4-yl-6-oxohexyl)-2-propyl-6,7,8,9-tetrahydro-1H-imidazo[4,5-c]quinolin-4-amine]"
4,166 to 169,"Cc1nc2c(N)nc3ccccc3c2n1CCC(=O)N1CCOCC1 [Example 22, 2-Methyl-1-(3-morpholin-4-yl-3-oxopropyl)-1H-imidazo[4,5-c]quinolin-4-amine]"
5,157 to 158,"CCCNC(=O)CCn1c(CCC)nc2c(N)nc3ccccc3c21 [Example 15, 3-(4-Amino-2-propyl-1H-imidazo[4,5-c]quinolin-1-yl)-N-propylpropanamide]"
6,201 to 203,"CC(C)(Cn1c(CO)nc2c(N)nc3ccccc3c21)C(N)=O [Example 68, 3-[4-Amino-2-(hydroxymethyl)-1H-imidazo[4,5-c]quinolin-1-yl)-2,2-dimethylpropanamide]"
7,226 to 228,"CCCc1nc2c(N)nc(C)c(C)c2n1CCCC(N)=O [Example 40, 4-(4-Amino-6,7-dimethyl-2-propyl-1H-imidazo[4,5-c]pyridin-1-yl)butanamide]"
8,202 to 203,"CCCc1nc2c(N)nc3ccccc3c2n1CCCCC(N)=O [Example 35, 5-(4-Amino-2-propyl-1H-imidazo[4,5-c]quinolin-1-yl)pentanamide]"
9,231 to 233,"CCCCc1nc2c(N)nc3ccccc3c2n1CC(C)(C)C(N)=O [Example 63, 3-(4-Amino-2-butyl-1H-imidazo[4,5-c]quinolin-1-yl)-2,2-dimethylpropanamide]"
10,284 to 287,"Cc1nc2c(N)nc3ccccc3c2n1CC(C)(C)C(N)=O [Example 61, 3-(4-Amino-2-methyl-1H-imidazo[4,5-c]quinolin-1-yl)-2,2-dimethylpropanamide]"
11,163 to 165,"CCc1nc2c(N)nc3cccnc3c2n1CCCCCC(=O)N1CCOCC1 [Example 55, 2-Ethyl-1-(6-morpholin-4-yl-6-oxohexyl)-1H-imidazo[4,5-c][1,5]naphthyridin-4-amine]"
12,221 to 223,"CCOCc1nc2c(N)nc3ccccc3c2n1CC1(C(N)=O)CCCCC1 [Example 67, 1-{[4-Amino-2-(ethoxymethyl)-1H-imidazo[4,5-c]quinolin-1-yl]methyl}cyclohexanecarboxamide]"
13,220 to 221,"CCc1nc2c(N)nc3cccnc3c2n1CCCCCC(N)=O [Example 56, 6-(4-Amino-2-ethyl-1H-imidazo[4,5-c][1,5]naphthyridin-1-yl)hexanamide]"
14,156 to 158,"CCOCc1nc2c(N)nc(C)c(C)c2n1CCCC(=O)N1CCOCC1 [Example 45, 2-(Ethoxymethyl)-6,7-dimethyl-1-(4-morpholin-4-yl-4-oxobutyl)-1H-imidazo[4,5-c]pyridin-4-amine]"
15,218 to 219,"Cc1nc2c(N)nc3ccccc3c2n1CCCCC(=O)N1CCOCC1 [Example 47, 2-Methyl-1-(5-morpholin-4-yl-5-oxopentyl)-1H-imidazo[4,5-c]quinolin-4-amine]"
16,135 to 137,"CCCc1nc2c(N)nc3ccccc3c2n1CCCCCCCCCCCC(=O)NC [Example 25, 12-(4-Amino-2-propyl-1H-imidazo[4,5-c]quinolin-1-yl)-N-methyldodecanamide]"
17,128 to 129,"COCCc1nc2c(N)nc3ccccc3c2n1CCCCC(=O)N1CCOCC1 [Example 36, 2-(2-Methoxyethyl)-1-(5-morpholin-4-yl-5-oxopentyl)-1H-imidazo[4,5-c]quinolin-4-amine]"
18,125 to 126,"COCCc1nc2c(N)nc3ccccc3c2n1CCC(=O)N1CCOCC1 [Example 19, 2-(2-Methoxyethyl)-1-(3-morpholin-4-yl-3-oxopropyl)-1H-imidazo[4,5-c]quinolin-4-amine]"
19,128 to 130,"CCCNC(=O)CCCCCn1cnc2c(N)nc3ccccc3c21 [Example 10, 6-(4-Amino-1H-imidazo[4,5-c]quinolin-1-yl)-N-propylhexanamide]"
20,219 to 221,"CCCc1nc2c(N)nc3ccccc3c2n1CC(C)(C)C(N)=O [Example 26, 3-(4-Amino-2-propyl-1H-imidazo[4,5-c]quinolin-1-yl)-2,2-dimethylpropanamide]"
21,228 to 230,"CCc1nc2c(N)nc(C)c(C)c2n1CCCC(N)=O [Example 42, 4-(4-Amino-2-ethyl-6,7-dimethyl-1H-imidazo[4,5-c]pyridin-1-yl)butanamide]"
22,196 to 197,"CCCc1nc2c(N)nc3cccnc3c2n1CCCC(=O)N1CCOCC1 [Example 37, 1-(4-Morpholin-4-yl-4-oxobutyl)-2-propyl-1H-imidazo[4,5-c][1,5]naphthyridin-4-amine]"
23,234 to 237,"CCCc1nc2c(N)nc3ccccc3c2n1CC1(C(N)=O)CCC1 [Example 65, 1-[(4-Amino-2-propyl-1H-imidazo[4,5-c]quinolin-1-yl)methyl]cyclobutanecarboxamide]"
